Target: T1, human GPR39 receptor (Homo sapiens, UniProt O43194)
T1 construct: PC3 Cells, Expressing the Endogenous Human GPR39 Receptor; endogenous in cells; host or cells: PC3 (human prostate adenocarcinoma) cells
T1 sequence (O43194 1-453): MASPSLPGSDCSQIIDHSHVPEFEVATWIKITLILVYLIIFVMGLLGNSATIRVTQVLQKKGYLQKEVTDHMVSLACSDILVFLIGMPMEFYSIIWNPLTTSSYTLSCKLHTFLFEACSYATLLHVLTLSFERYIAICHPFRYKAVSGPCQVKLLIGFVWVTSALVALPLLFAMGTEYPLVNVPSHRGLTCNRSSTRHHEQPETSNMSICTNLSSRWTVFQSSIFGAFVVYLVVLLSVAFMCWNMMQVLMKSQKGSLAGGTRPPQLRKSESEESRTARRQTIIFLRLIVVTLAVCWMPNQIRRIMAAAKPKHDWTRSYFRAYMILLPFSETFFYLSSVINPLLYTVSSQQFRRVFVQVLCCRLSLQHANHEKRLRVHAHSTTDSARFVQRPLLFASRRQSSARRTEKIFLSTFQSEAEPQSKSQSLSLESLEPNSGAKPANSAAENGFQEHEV
Test: Measurement of intracellular calcium response in PC3 cells (FLIPR), antagonism of the C3 agonist response
Type: cell-based
Conditions: functional pKi (modified Cheng-Prusoff), inhibition of the C3 (TC-G 1008) response at EC90, 30 μM ZnCl2, read-out: fpKi activity
Procedure: Human prostate adenocarcinoma (PC3) cells endogenously expressing human GPR39 receptor were seeded into black walls clear-base 384-well plates at a density of 7,500 cells per well in DM EM (Low Glucose) supplemented with 10% heat-inactivated foetal bovine serum and 1% of Pen/Strep and grown overnight at 37° C., 5% CO2. After washing with assay buffer (20 mM HEPES, 137 mM NaCI, 5.4 mM KCI, 10 mM glucose, 0.8 mM MgSO4, 1.3 mM CaCl2, 0.3 mM Na2HPO4, 0.4 mM KH2PO4 4.2 mM NaHCO3, pH 7.4), cells were incubated with Calcium-6 probe (Molecular Devices) at 37° C. for 2h and then equilibrated at RT for 30 minutes on metal block. The fluorescence was measured in real time by Fluorometric Imaging Plate Reader (FLIPR TETRA, Molecular Devices) (excitation wavelength at 470-495 nm, emission wavelength at 515-575 nm).
Compounds of invention were serially diluted in neat DMSO at 1000 fold concentrations and plated into 384-well plates and then 200-fold diluted in assay buffer containing 150 uM ZnCl2 (30 μM final concentration) and […].
Fluorescence was monitored throughout the run assay. The peak of Ca2+stimulation (baseline subtracted) was expressed as percentage of the maximal inhibition of the EC90 C3 response and was plotted versus the concentration of test compound. Curve fitting and IC50 estimations are carried out using a four-parameter logistic model using XLfit Software.
The potency of compounds was reported as functional pKi (—Log10Ki) obtained using the modified Cheng-Prusoff relationship (Cheng, Y., Prusoff, W. H. 1973.)
fKi =IC50/(1+[L]/EC50) where IC50 is the concentration of antagonist required for 50% inhibition of the maximum response, [L] is the concentration of the agonist used (EC90) and EC50 is the concentration of agonist need to induced 50% of the maximum response (obtained in each experimental plate).
An fpKi less than 5.2 is reported as “+/±”. An fpKi ranging from 5.2 to 5.9 is reported as “+”. An fpKi from 6.0 to 6.5 is reported as “++”. An fpKi from 6.6 to 7.2 is reported as “+++”. An fpKi equal to or greater than 7.3 is reported as “++++”.

Row | SMILES | Ki [µM]
1 | CN1CCN(C(=O)c2ccc(NC(=O)C3CC3)cc2N2CCCC2)C(c2cccc(F)c2)C1 (racemic) [Example 88c, N-[4-[2-(3-fluorophenyl)-4-methylpiperazine-1-carbonyl]-3-pyrrolidin-1-ylphenyl]cyclopropanecarboxamide] | 0.0631 to 0.251
2 | CN1CCN(C(=O)c2ccc(NC(=O)C3CC3)nc2N2CC3CC3C2)C(c2ccccc2)C1 (racemic) [Example 145] | 0.0631 to 0.251
3 | Cc1nnc(-c2ccc(C(=O)N3CCN(C)CC3c3ccccc3)c(N3CCC(C(F)(F)F)C3)c2)[nH]1 (single isomer, unassigned) [Example 177d, (2S, 3R) or (2R, 3S) or (2R, 3R) or (2S, 3S) (4-methyl-2-phenylpiperazin-1-yl)-[4-(5-methyl-4H-1,2,4-triazol-3-yl)-2-[3-(trifluoromethyl)pyrrolidin-1-yl]phenyl]methanone] | 0.316 to 1
4 | CC1CC(C)CN(c2cc(NC(=O)C3CC3)ccc2C(=O)N2CCN(C)CC2c2ccccc2)C1 (single isomer, unassigned) [Example 68e, Anti N-[3-[3,5-dimethylpiperidin-1-yl]-4-(4-methyl-2-phenylpiperazine-1-carbonyl)phenyl]cyclopropanecarboxamide] | 0.0631 to 0.251
5 | CN1CCn2c(cnc2-c2ccc(NC(=O)C3CC3)cc2N2CCCC2)C1 [Example 103, N-[4-(7-methyl-6,8-dihydro-5H-imidazo[1,5-a]pyrazin-3-yl)-3-pyrrolidin-1-ylphenyl]cyclopropanecarboxamide] | 0.316 to 1
6 | CN1CCN(C(=O)c2ccc(NC(=O)C3CC3)nc2N2CCC(F)(F)C2)C(c2ccccc2)C1 (racemic) [Example 148c, N-[6-(3,3-difluoropyrrolidin-1-yl)-5-(4-methyl-2-phenylpiperazine-1-carbonyl)pyridin-2-yl]cyclopropanecarboxamide] | 0.0631 to 0.251
7 | Cc1nnc(-c2ccc(C(=O)N3CCC(C(F)(F)F)CC3)c(N3CCCC3)c2)[nH]1 [Example 153, [4-(5-methyl-4H-1,2,4-triazol-3-yl)-2-pyrrolidin-1-ylphenyl]-[4-(trifluoromethyl)piperidin-1-yl]methanone] | 0.0631 to 0.251
8 | CS(=O)(=O)C1CCN(C(=O)c2ccc(NC(=O)C3CC3)cc2N2CCCC2)CC1 [Example 218, N-[4-(4-methylsulfonylpiperidine-1-carbonyl)-3-pyrrolidin-1-ylphenyl]cyclopropanecarboxamide] | 1.26 to 6.31
9 | CN1CCN(C(=O)c2ccc(NC(=O)C3CC3)cc2N2CCCC2)C(c2ccccc2Cl)C1 (single isomer, unassigned) [Example 170b, (2R or 2S) N-[4-[2-(2-chlorophenyl)-4-methylpiperazine-1-carbonyl]-3-pyrrolidin-1-ylphenyl]cyclopropanecarboxamide] | 0.316 to 1
10 | O=C(Nc1ccc(C(=O)N2CCS(=O)(=O)CC2)c(N2CCCC(C(F)(F)F)C2)c1)C1CC1 (single isomer, unassigned) [Example 185a, N-[4-(1,1-dioxo-1,4-thiazinane-4-carbonyl)-3-[3R or 3S-(trifluoromethyl)piperidin-1-yl]phenyl]cyclopropanecarboxamide] | 0.0631 to 0.251
11 | O=C(Nc1ccc(C(=O)N2CCc3ccccc3C2)c(N2CCCCCC2)c1)C1CC1 [Example 21, N-(3-(azepan-1-yl)-4-(1,2,3,4-tetrahydroisoquinoline-2-carbonyl)phenyl) cyclopropanecarboxamide] | 0.316 to 1
12 | CC1CCN(c2cc(NC(=O)C3CC3)ccc2C(=O)N2CCN(C)CC2c2ccccc2)C1 (single isomer, unassigned) [Example 64b, (2S, 3R) or (2R, 3S) or (2R, 3R) or (2S, 3S) N-[4-(4-methyl-2-phenylpiperazine-1-carbonyl)-3-(3-methylpyrrolidin-1-yl)phenyl] cyclopropanecarboxamide] | 1.26 to 6.31
